Assay results reported in US20230089867A1, “CYCLIC PENTAMER COMPOUNDS AS PROPROTEIN CONVERTASE SUBTILISIN/KEXIN TYPE 9 (PCSK9) INHIBITORS FOR THE TREATMENT OF METABOLIC DISORDER” (Novartis AG, priority 2018, published 2023).

Biological target: human PCSK9 (Homo sapiens, UniProt Q8NBP7)
Test: PCSK9 ligand binding TR-FRET assay (interference with binding of human PCSK9 to human LDLR)
Conditions: for Max % inhibition: PCSK9 FRET assay, efficacy (Amax), 100% = 1 uM unlabeled human PCSK9, 0% = DMSO; for IC50: TR-FRET, human PCSK9 Alexa Fluor 647 / human LDLR extracellular domain-Europium Kryptate, read-out: PCSK9 FRET Assay IC50
How it was run: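 Threefold compound dilutions were pre-incubated 30 min with PCSK9, after which 4 nM Europium Kryptate-tagged human LDLR ectodomain was added for a further 2 h.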

Sequence of human PCSK9 (Q8NBP7 153-692): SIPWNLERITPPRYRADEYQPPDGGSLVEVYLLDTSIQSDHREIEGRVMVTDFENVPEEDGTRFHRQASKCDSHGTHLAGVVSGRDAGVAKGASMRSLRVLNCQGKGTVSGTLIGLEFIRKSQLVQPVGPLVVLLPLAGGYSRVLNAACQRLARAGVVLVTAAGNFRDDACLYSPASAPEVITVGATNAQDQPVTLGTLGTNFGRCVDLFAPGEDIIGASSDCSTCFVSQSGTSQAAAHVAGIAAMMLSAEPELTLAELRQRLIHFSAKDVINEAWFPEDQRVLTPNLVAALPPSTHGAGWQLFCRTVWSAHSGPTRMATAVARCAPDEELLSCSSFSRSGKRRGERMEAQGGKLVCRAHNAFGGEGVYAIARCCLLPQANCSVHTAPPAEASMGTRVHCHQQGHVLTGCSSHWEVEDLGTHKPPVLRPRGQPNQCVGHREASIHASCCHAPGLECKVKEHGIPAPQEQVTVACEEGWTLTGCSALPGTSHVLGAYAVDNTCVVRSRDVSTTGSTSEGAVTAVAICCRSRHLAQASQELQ
Sequence of human PCSK9 (Q8NBP7 31-152 partner limits assumed): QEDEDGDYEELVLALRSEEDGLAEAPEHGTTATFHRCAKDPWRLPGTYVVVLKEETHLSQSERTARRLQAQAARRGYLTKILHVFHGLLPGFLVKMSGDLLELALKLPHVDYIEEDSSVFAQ

COC[C@@H]1NC(=O)[C@H](CCN2CCOCC2)N(Cc2ccc(Cl)cc2Oc2ccc(-c3cnc(CN(C)C)n3C)cc2)C(=O)C[C@@H](Cc2ccccc2)C(=O)N(C)[C@@H](C)[C@H](C)NC(=O)C[C@H](Cc2ccc(Cl)cc2)N(C)C1=O [Compound 94, (2S,5S,8S,12S,13S,16R)-16-benzyl-1-(4-chloro-2-(4-(2-((dimethylamino)methyl)-1-methyl-1H-imidazol-5-yl)phenoxy)benzyl)-8-(4-chlorobenzyl)-5-(methoxymethyl)-7,12,13,14-tetramethyl-2-(2-morpholinoethyl)-1,4,7,11,14-pentaazacyclooctadecane-3,6,10,15,18-pentaone]
Max % inhibition: 104.90% | IC50: 2.4 nM

COC[C@@H]1NC(=O)[C@H](CCC(=O)N2CC3(COC3)C2)N(Cc2ccc(Cl)cc2Oc2ccc(-c3cnc(CN(C)C)n3C)cc2)C(=O)C[C@@H](Cc2ccccc2)C(=O)N(C)[C@@H](C)CNC(=O)C[C@H](Cc2ccc(Cl)cc2)N(C)C1=O [Compound 95, (2S,5S,8S,13S,16R)-16-benzyl-1-(4-chloro-2-(4-(2-((dimethylamino)methyl)-1-methyl-1H-imidazol-5-yl)phenoxy)benzyl)-8-(4-chlorobenzyl)-5-(methoxymethyl)-7,13,14-trimethyl-2-(3-oxo-3-(2-oxa-6-azaspiro[3.3]heptan-6-yl)propyl)-1,4,7,11,14-pentaazacyclooctadecane-3,6,10,15,18-pentaone]
Max % inhibition: 104.58% | IC50: 0.8 nM

COC[C@@H]1NC(=O)[C@H](C)N(Cc2ccc(Cl)cc2Oc2ccc(-c3cnc(CN(C)C)n3C)cc2)C(=O)C[C@@H](CC(F)=C(F)F)C(=O)N(C)[C@H]2CCCC[C@@H]2NC(=O)C[C@H](Cc2ccc(Cl)cc2)N(C)C1=O [Compound 96, (4S,7S,10S,14S,16aS,20aS)-11-(4-chloro-2-(4-(2-((dimethylamino)methyl)-1-methyl-1H-imidazol-5-yl)phenoxy)benzyl)-4-(4-chlorobenzyl)-7-(methoxymethyl)-5,10,16-trimethyl-14-(2,3,3-trifluoroallyl)hexadecahydrobenzo[l][1,4,7,11,14]pentaazacyclooctadecine-2,6,9,12,15(3H)-pentaone]
Max % inhibition: 78.14% | IC50: 304 nM

COC[C@@H]1NC(=O)[C@H](CC(F)F)N(Cc2ccc(Cl)cc2Oc2ccc(-c3cnc(CN4CCCC4)n3C)cc2)C(=O)C[C@@H](Cc2ccccc2)C(=O)N(C)[C@@H](C)CNC(=O)C[C@H](Cc2ccc(Cl)cc2)N(C)C1=O [Compound 97, (2S,5S,8S,13S,16R)-16-benzyl-1-(4-chloro-2-(4-(1-methyl-2-(pyrrolidin-1-ylmethyl)-1H-imidazol-5-yl)phenoxy)benzyl)-8-(4-chlorobenzyl)-2-(2,2-difluoroethyl)-5-(methoxymethyl)-7,13,14-trimethyl-1,4,7,11,14-pentaazacyclooctadecane-3,6,10,15,18-pentaone]
Max % inhibition: 90.83% | IC50: 2.2 nM

COC[C@@H]1NC(=O)[C@H](C)N(Cc2ccc(Cl)cc2Oc2ccc(-c3cnc(CN(C)C)n3C)cc2)C(=O)C[C@@H](Cc2cc(F)cc(F)c2F)C(=O)N(C)[C@@H](C)CNC(=O)C[C@H](Cc2ccc(Cl)cc2)N(C)C1=O [Compound 98, (2S,5S,8S,13S,16R)-1-(4-chloro-2-(4-(2-((dimethylamino)methyl)-1-methyl-1H-imidazol-5-yl)phenoxy)benzyl)-8-(4-chlorobenzyl)-5-(methoxymethyl)-2,7,13,14-tetramethyl-16-(2,3,5-trifluorobenzyl)-1,4,7,11,14-pentaazacyclooctadecane-3,6,10,15,18-pentaone]
Max % inhibition: 98.16% | IC50: 1.9 nM

COC[C@@H]1NC(=O)[C@H](C)N(Cc2ccc(Cl)cc2Oc2ccc(-c3cnc(CN(C)C)n3C)cc2)C(=O)C[C@@H](Cc2ccccc2C#N)C(=O)N(C)[C@@H](C)[C@H](C)NC(=O)C[C@H](Cc2ccc(Cl)cc2)N(C)C1=O [Compound 99, 2-(((2S,5S,8S,12S,13S,16R)-1-(4-chloro-2-(4-(2-((dimethylamino)methyl)-1-methyl-1H-imidazol-5-yl)phenoxy)benzyl)-8-(4-chlorobenzyl)-5-(methoxymethyl)-2,7,12,13,14-pentamethyl-3,6,10,15,18-pentaoxo-1,4,7,11,14-pentaazacyclooctadecan-16-yl)methyl)benzonitrile]
Max % inhibition: 104.20% | IC50: 1.6 nM

COC[C@@H]1NC(=O)[C@H](C)N(Cc2ccc(Cl)cc2Oc2ccc(-c3cnc(CN(C)C)n3C)cc2)C(=O)C[C@@H](CC23CC(C2)C3)C(=O)N(C)[C@H]2CCCC[C@@H]2NC(=O)C[C@H](Cc2ccc(Cl)cc2)N(C)C1=O [Compound 100, (4S,7S,10S,14R,16aS,20aS)-14-(bicyclo[1.1.1]pentan-1-ylmethyl)-11-(4-chloro-2-(4-(2-((dimethylamino)methyl)-1-methyl-1H-imidazol-5-yl)phenoxy)benzyl)-4-(4-chlorobenzyl)-7-(methoxymethyl)-5,10,16-trimethylhexadecahydrobenzo[l][1,4,7,11,14]pentaazacyclooctadecine-2,6,9,12,15(3H)-pentaone]
Max % inhibition: 105.41% | IC50: 5.4 nM

COC[C@@H]1NC(=O)[C@H](CCN2CCOCC2)N(Cc2ccc(Cl)cc2Oc2ccc(-c3cnc(CN(C)C)n3C)cc2)C(=O)C[C@@H](Cc2ccccc2)C(=O)N(C)[C@H]2CCCC[C@@H]2NC(=O)C[C@H](Cc2ccc(Cl)cc2)N(C)C1=O [Compound 101, (4S,7S,10S,14R,16aS,20aS)-14-benzyl-11-(4-chloro-2-(4-(2-((dimethylamino)-methyl)-1-methyl-1H-imidazol-5-yl)phenoxy)benzyl)-4-(4-chlorobenzyl)-7-(methoxymethyl)-5,16-dimethyl-10-(2-morpholinoethyl)hexadecahydrobenzo-[l][1,4,7,11,14]pentaazacycloocta-decine-2,6,9,12,15(3H)-pentaone]
Max % inhibition: 94.32% | IC50: 1.1 nM

COC[C@@H]1NC(=O)[C@H](C)N(Cc2ccc(C)cc2Oc2ccc(-c3cnc(CN(C)C)n3C)cc2)C(=O)C[C@@H](Cc2ccccc2)C(=O)N(C)[C@@H](C)[C@H](C)NC(=O)C[C@H](Cc2ccc(Cl)cc2)N(C)C1=O [Compound 102, (2S,5S,8S,12S,13S,16R)-16-benzyl-8-(4-chlorobenzyl)-1-(2-(4-(2-((dimethylamino)methyl)-1-methyl-1H-imidazol-5-yl)phenoxy)-4-methylbenzyl)-5-(methoxymethyl)-2,7,12,13,14-pentamethyl-1,4,7,11,14-pentaazacyclooctadecane-3,6,10,15,18-pentaone]
Max % inhibition: 101.56% | IC50: 1.5 nM

COC[C@@H]1NC(=O)[C@H](C)N(Cc2ccc(Cl)cc2Oc2ccc(-c3cnc([C@@H](C)N(C)C)n3C)cc2)C(=O)C[C@@H](Cc2ccccc2)C(=O)N(C)[C@H]2CCCC[C@@H]2NC(=O)C[C@H](Cc2ccc(Cl)cc2)N(C)C1=O [Compound 104, (4S,7S,10S,14R,16aS,20aS)-14-benzyl-11-(4-chloro-2-(4-(2-((R)-1-(dimethylamino)ethyl)-1-methyl-1H-imidazol-5-yl)phenoxy)benzyl)-4-(4-chlorobenzyl)-7-(methoxymethyl)-5,10,16-trimethylhexadecahydrobenzo[l][1,4,7,11,14]pentaazacyclooctadecine-2,6,9,12,15(3H)-pentaone]
Max % inhibition: 109.94% | IC50: 1.4 nM

COC[C@@H]1NC(=O)[C@H](C)N(Cc2ccc(Cl)cc2Oc2ccc(-n3cnc(CN(C)C)c3C)cc2)C(=O)C[C@@H](Cc2ccccn2)C(=O)N(C)[C@H]2CCCC[C@@H]2NC(=O)C[C@H](Cc2ccc(Cl)cc2)N(C)C1=O [Compound 105, (4S,7S,10S,14R,16aS,20aS)-11-(4-chloro-2-(4-(4-((dimethylamino)methyl)-5-methyl-1H-imidazol-1-yl)phenoxy)benzyl)-4-(4-chlorobenzyl)-7-(methoxymethyl)-5,10,16-trimethyl-14-(pyridin-2-ylmethyl)hexadecahydrobenzo[l][1,4,7,11,14]pentaazacyclooctadecine-2,6,9,12,15(3H)-pentaone]
Max % inhibition: 104.44% | IC50: 1 nM

C=CC[C@@H]1CC(=O)N(Cc2ccc(C)cc2Oc2ccc(-c3cnc(CN(C)C)n3C)cc2)[C@@H](C)C(=O)N[C@@H](COC)C(=O)N(C)[C@@H](Cc2ccc(Cl)cc2)CC(=O)N[C@@H](C)[C@H](C)N(C)C1=O [Compound 107, (2S,5S,8S,12S,13S,16R)-16-allyl-8-(4-chlorobenzyl)-1-(2-(4-(2-((dimethylamino)methyl)-1-methyl-1H-imidazol-5-yl)phenoxy)-4-methylbenzyl)-5-(methoxymethyl)-2,7,12,13,14-pentamethyl-1,4,7,11,14-pentaazacyclooctadecane-3,6,10,15,18-pentaone]
Max % inhibition: 100.41% | IC50: 1.7 nM

COC[C@@H]1NC(=O)[C@H](C)N(Cc2ccc(Cl)cc2Oc2ccc(-c3cnc(CN4CCCC4)n3C)cc2)C(=O)C[C@@H](Cc2ccc(F)cc2)C(=O)N(C)[C@@H](C)CNC(=O)C[C@H](Cc2ccc(Cl)cc2)N(C)C1=O [Compound 108, (2S,5S,8S,13S,16R)-1-(4-chloro-2-(4-(1-methyl-2-(pyrrolidin-1-ylmethyl)-1H-imidazol-5-yl)phenoxy)benzyl)-8-(4-chlorobenzyl)-16-(4-fluorobenzyl)-5-(methoxymethyl)-2,7,13,14-tetramethyl-1,4,7,11,14-pentaazacyclooctadecane-3,6,10,15,18-pentaone]
Max % inhibition: 99.73% | IC50: 0.7 nM

C=CC[C@@H]1CC(=O)N(Cc2ccc(Cl)cc2Oc2ccc(-c3cnc(CN(C)C)n3C)cc2)[C@@H](C)C(=O)N[C@@H](COC)C(=O)N(C)[C@@H](Cc2ccc(Cl)cc2)CC(=O)N[C@H]2CCCC[C@@H]2N(C)C1=O [Compound 110, (4S,7S,10S,14R,16aS,20aS)-14-allyl-11-(4-chloro-2-(4-(2-((dimethylamino)methyl)-1-methyl-1H-imidazol-5-yl)phenoxy)benzyl)-4-(4-chlorobenzyl)-7-(methoxymethyl)-5,10,16-trimethylhexadecahydrobenzo[l][1,4,7,11,14]pentaazacyclooctadecine-2,6,9,12,15(3H)-pentaone]
Max % inhibition: 99.22% | IC50: 1.2 nM
